# Results published in PMC11868595, “Safety, pharmacokinetics and efficacy of HA121-28 in patients with advanced solid tumors and RET fusion-positive non-small-cell lung cancer: a multicenter, open-label, single-arm phase 1/2 trial” (Signal Transduction and Targeted Therapy, 2025).
# System: patients with RET fusion-positive NSCLC
# Assay: Phase 2 trial: adverse events (CTCAE)
# Assay type: in vivo, human
# Excerpt: The phase 2 trial was still ongoing. It was a single-arm, multicenter, open-label, nonrandomized study to assess the efficacy and safety of HA121-28 in RET-fusion-positive NSCLC.
# Patients aged 18–75 years (inclusive) who had unresectable locally advanced or metastatic NSCLC through histologically or cytologically examination were enrolled. Patients were also required to have documented RET fusions centrally examined by next-generation sequencing in certified laboratories but without other oncogenic alterations. Had progression on at least one previous line of standard treatment but have no previous use of other anti-RET inhibitors. The complete lists of inclusion and exclusion criteria of phase 1 and phase 2 are provided in both protocols (in Supplement).
# In phase 1 trial, during the dose-escalation part, patients first administered HA121-28 in a single ascending dose under the fasted state, then followed up for seven days. Then, patients received ascending doses of HA121-28 (q.d.) on a 21-day on and 7-day off treatment scheme for a 28-day cycle. For patients deemed beneficial from the treatment by investigators, treatment could remain until disease progression, or they discontinued from the study. In the dose-expansion part of phase 1, as well as phase 2, patients received HA121-28 (q.d.) at the selected doses on a 21-day on and 7-day off treatment scheme until disease progression, or they discontinued from the study.
# Treatment-emergent adverse events (TEAEs) were documented during the entire study period. The predefined adverse event of special interest (AESI) was ≥ grade 3 prolonged QT interval. Tumor imaging was performed using contrast-enhanced computed tomography or magnetic resonance imaging at screening, Day 28 of the first cycle, then approximately every eight weeks till the end of the study for phase 1; in phase 2, imaging was scheduled at screening, and every eight weeks during the first 40 weeks, followed by every 12 weeks for the rest of the study period. RECIST 1.1 was used by the independent review committee or investigators for assessment of tumor response. After the original assessment, a repeated assessment was required around four weeks later to confirm a complete or partial response.
# The primary endpoint of phase 2 was the independent review committee evaluated ORR using RECIST 1.1. The secondary endpoints included investigators assessed ORR; DCR, PFS, and DOR by the independent review committee and investigators; overall survival and TEAEs. Each TEAE was graded according to CTCAE version 5.0 and coded by MedDRA (version 24.0). The phase 2 trial is ongoing; not all endpoints are reported in this paper.
# [1] = Phase 2 study, patient 3 with Grade 3 QTc prolongation
# [2] = Phase 2 study, patient 4 with Grade 3 QTc prolongation
# [3] = Phase 2 study, patient 5 with Grade 3 QTc prolongation
# [4] = Phase 2 study, patient 7 with Grade 3 QTc prolongation
# [5] = Phase 2 study, patient 8 with Grade 3 QTc prolongation
smiles,measurement,setting,value
"COc1cc2c(Nc3ccc(Br)cc3F)ncnc2cc1OCCCCN(C)C.Cl.Cl [HA121-28, N-(4-bromo-2-fluorophenyl)-7-(4-(dimethylamino)butoxy)-6-methoxy quinazolin-4-amine dihydrochloride]",Serious TEAE: Pneumonia,"Phase 2, 450 mg (N=48)",1 (2.1) No. (%)
same,Serious TEAE: Pneumonitis,"Phase 2, 450 mg (N=48)",1 (2.1) No. (%)
same,Serious TEAE: Prolonged QT interval,"Phase 2, 450 mg (N=48)",0 No. (%)
same,Serious TEAE: Pulmonary embolism,"Phase 2, 450 mg (N=48)",1 (2.1) No. (%)
same,Serious TEAE: Pyrexia,"Phase 2, 450 mg (N=48)",1 (2.1) No. (%)
same,Serious TEAE: Rash,"Phase 2, 450 mg (N=48)",2 (4.2) No. (%)
same,Serious TEAE: Rectal hemorrhage,"Phase 2, 450 mg (N=48)",0 No. (%)
same,Serious TEAE: Respiratory failure,"Phase 2, 450 mg (N=48)",1 (2.1) No. (%)
same,Serious TEAE: Seizure,"Phase 2, 450 mg (N=48)",0 No. (%)
same,Serious TEAE: Septic shock,"Phase 2, 450 mg (N=48)",1 (2.1) No. (%)
same,Serious TEAE: Sudden cardiac arrest,"Phase 2, 450 mg (N=48)",0 No. (%)
same,Serious TEAE: Sudden death,"Phase 2, 450 mg (N=48)",0 No. (%)
same,Serious TEAE: Upper respiratory tract infection,"Phase 2, 450 mg (N=48)",0 No. (%)
same,Serious TEAE: Ventricular tachycardia,"Phase 2, 450 mg (N=48)",0 No. (%)
same,Serious TEAE: Vomiting,"Phase 2, 450 mg (N=48)",0 No. (%)
same,Serious TEAE: Weight loss,"Phase 2, 450 mg (N=48)",0 No. (%)
same,Serious TRAE: ALT increased,"Phase 2, 450 mg (N=48)",1 (2.1) No. (%)
same,Serious TRAE: AST increased,"Phase 2, 450 mg (N=48)",1 (2.1) No. (%)
same,Serious TRAE: Abdominal Pain,"Phase 2, 450 mg (N=48)",1 (2.1) No. (%)
same,Serious TRAE: Abdominal distension,"Phase 2, 450 mg (N=48)",0 No. (%)
same,Serious TRAE: Acute cholecystitis,"Phase 2, 450 mg (N=48)",0 No. (%)
same,Serious TRAE: Acute pancreatitis,"Phase 2, 450 mg (N=48)",0 No. (%)
same,Serious TRAE: Anal abscess,"Phase 2, 450 mg (N=48)",0 No. (%)
same,Serious TRAE: Any,"Phase 2, 450 mg (N=48)",9 (18.8) No. (%)
same,Serious TRAE: Aortic intramural hematoma,"Phase 2, 450 mg (N=48)",0 No. (%)
same,Serious TRAE: Arrhythmia,"Phase 2, 450 mg (N=48)",0 No. (%)
same,Serious TRAE: Blood bilirubin increased,"Phase 2, 450 mg (N=48)",0 No. (%)
same,Serious TRAE: Blood creatinine increased,"Phase 2, 450 mg (N=48)",0 No. (%)
same,Serious TRAE: COVID-19,"Phase 2, 450 mg (N=48)",0 No. (%)
same,Serious TRAE: Cardiac tamponade,"Phase 2, 450 mg (N=48)",0 No. (%)
same,Serious TRAE: Coronary artery atherosclerosis,"Phase 2, 450 mg (N=48)",0 No. (%)
same,Serious TRAE: Death,"Phase 2, 450 mg (N=48)",0 No. (%)
same,Serious TRAE: Dermatitis allergic,"Phase 2, 450 mg (N=48)",1 (2.1) No. (%)
same,Serious TRAE: Diarrhea,"Phase 2, 450 mg (N=48)",1 (2.1) No. (%)
same,Serious TRAE: Drug eruption,"Phase 2, 450 mg (N=48)",0 No. (%)
same,Serious TRAE: Dyspnea,"Phase 2, 450 mg (N=48)",0 No. (%)
same,Serious TRAE: Embolism,"Phase 2, 450 mg (N=48)",0 No. (%)
same,Serious TRAE: Erythema multiforme,"Phase 2, 450 mg (N=48)",1 (2.1) No. (%)
same,Serious TRAE: Headache,"Phase 2, 450 mg (N=48)",0 No. (%)
same,Serious TRAE: Hemoptysis,"Phase 2, 450 mg (N=48)",0 No. (%)
same,Serious TRAE: Hydronephrosis,"Phase 2, 450 mg (N=48)",0 No. (%)
same,Serious TRAE: Hypertension,"Phase 2, 450 mg (N=48)",2 (4.2) No. (%)
same,Serious TRAE: Hypoalbuminemia,"Phase 2, 450 mg (N=48)",0 No. (%)
same,Serious TRAE: Intestinal obstruction,"Phase 2, 450 mg (N=48)",0 No. (%)
same,Serious TRAE: Intra-abdominal fluid collection,"Phase 2, 450 mg (N=48)",0 No. (%)
same,Serious TRAE: Intracranial tumor hemorrhage,"Phase 2, 450 mg (N=48)",0 No. (%)
same,Serious TRAE: Liver injury,"Phase 2, 450 mg (N=48)",0 No. (%)
same,Serious TRAE: Lung adenocarcinoma,"Phase 2, 450 mg (N=48)",0 No. (%)
same,Serious TRAE: Malignant neoplasm progression,"Phase 2, 450 mg (N=48)",0 No. (%)
same,Serious TRAE: Multiple organ dysfunction syndrome,"Phase 2, 450 mg (N=48)",0 No. (%)
same,Serious TRAE: Nausea,"Phase 2, 450 mg (N=48)",0 No. (%)
same,Serious TRAE: Nephrolithiasis,"Phase 2, 450 mg (N=48)",0 No. (%)
same,Serious TRAE: Platelet counts decreased,"Phase 2, 450 mg (N=48)",0 No. (%)
same,Serious TRAE: Pleural effusion,"Phase 2, 450 mg (N=48)",0 No. (%)
same,Serious TRAE: Pneumonia,"Phase 2, 450 mg (N=48)",0 No. (%)
same,Serious TRAE: Pneumonitis,"Phase 2, 450 mg (N=48)",0 No. (%)
same,Serious TRAE: Prolonged QT interval,"Phase 2, 450 mg (N=48)",0 No. (%)
same,Serious TRAE: Pulmonary embolism,"Phase 2, 450 mg (N=48)",1 (2.1) No. (%)
same,Serious TRAE: Pyrexia,"Phase 2, 450 mg (N=48)",0 No. (%)
same,Serious TRAE: Rash,"Phase 2, 450 mg (N=48)",2 (4.2) No. (%)
same,Serious TRAE: Rectal hemorrhage,"Phase 2, 450 mg (N=48)",0 No. (%)
same,Serious TRAE: Respiratory failure,"Phase 2, 450 mg (N=48)",0 No. (%)
same,Serious TRAE: Seizure,"Phase 2, 450 mg (N=48)",0 No. (%)
same,Serious TRAE: Septic shock,"Phase 2, 450 mg (N=48)",0 No. (%)
same,Serious TRAE: Sudden cardiac arrest,"Phase 2, 450 mg (N=48)",0 No. (%)
same,Serious TRAE: Sudden death,"Phase 2, 450 mg (N=48)",0 No. (%)
same,Serious TRAE: Upper respiratory tract infection,"Phase 2, 450 mg (N=48)",0 No. (%)
same,Serious TRAE: Ventricular tachycardia,"Phase 2, 450 mg (N=48)",0 No. (%)
same,Serious TRAE: Vomiting,"Phase 2, 450 mg (N=48)",0 No. (%)
same,Serious TRAE: Weight loss,"Phase 2, 450 mg (N=48)",0 No. (%)
same,Grade of cardiac TEAE: sinus bradycardia,"Phase 2 study, patient 1 with Grade 3 QTc prolongation",1
same,Grade of cardiac TEAE: cronary arteriosclerosis,"Phase 2 study, patient 2 with Grade 3 QTc prolongation",2
same,Grade of cardiac TEAE: Supraventricular extrasystoles,[1],1
same,Grade of cardiac TEAE: arhythmia,[1],1
same,Grade of cardiac TEAE: sinus bradycardia,[1],1
same,Grade of cardiac TEAE: ventricular extrasystole,[1],2
same,Grade of cardiac TEAE: Ejection fraction reduced,[2],2
same,Grade of cardiac TEAE: Left ventricular dysfunction,[2],2
same,Grade of cardiac TEAE: Supraventricular extrasystoles,[2],1
same,Grade of cardiac TEAE: Ventricular wall movement diffusky diminshed,[2],2
same,Grade of cardiac TEAE: nodal tachycardia,[2],1
same,Grade of cardiac TEAE: T wave abnormal,[3],1
same,Grade of cardiac TEAE: nodal tachycardia,[3],1
same,Grade of cardiac TEAE: myocardial damage,"Phase 2 study, patient 6 with Grade 3 QTc prolongation",2
same,Grade of cardiac TEAE: Supraventricular extrasystoles,[4],2
same,Grade of cardiac TEAE: T wave abnormal,[4],2
same,Grade of cardiac TEAE: U wave abnormal,[4],2
same,Grade of cardiac TEAE: T wave abnormal,[5],1
same,Grade of cardiac TEAE: nodal tachycardia,[5],1
same,Grade of cardiac TEAE: nodal tachycardia,"Phase 2 study, patient 9 with Grade 3 QTc prolongation",1
same,grade ≥ 3 TEAE diarrhea,phase 2,12.5%
same,grade ≥ 3 TEAE hypertension,phase 2,18.8%
same,grade ≥ 3 TEAE prolonged QT interval,phase 2,31.3%
same,patients with at least one SAE,phase 2,39.6%
same,patients with at least one TRAE,phase 2,95.8%
same,patients with grade ≥3 TRAEs,phase 2,62.5%
same,patients with treatment-related SAE,phase 2,18.8%
same,≥ grade-3 prolonged QT interval with dose interruption,phase 2,14.6%
same,≥ grade-3 prolonged QT interval with dose reduction,phase 2,6.3%
